Each structure is given as a SMILES string. “Also recorded” adds a separate entry of the source. Where two headings read alike, the source gives them in different places. Where a SMILES comes first, the peptide text is derived from it. [ ]: non-standard residue; d: D form. pGlu = O=C1CC[C@@H](C(=O)O)N1

The subject of assay [1] is hemi-anterior pituitaries of adult male rats. Briefly: LH release in vitro from incubated hemi-anterior pituitaries (RIA of medium). Format: cell-based, rat. The conditions noted are these: for LH: n = 6. The procedure:
(§1) After acclimatization for 5 or more days in the vivarium, male rats were killed by decapitation. Following removal of the posterior lobe, the anterior pituitary (AP) was bisected longitudinally, and each AP was incubated in a tube containing 0.5 ml Krebs-Ringer bicarbonate (5 mM ascorbic acid; pH 7.4) buffer (KRB) in an atmosphere of 95% O2 /5% CO2 in a Dubnoff shaker (50 cycles per min) for a period of 60 min. Following this pre-incubation period, the APs were incubated for 3 hr in fresh KRB buffer alone (control), or in KRB containing one of various concentrations of synthetic mammalian (m)-LHRH, l-LHRH-III, l-LHRH-I, chicken (c)-LHRH-II, or salmon (s)-LHRH. The medium was then aspirated, and was stored frozen at -20° C. until radio-immunoassays (RIA) for FSH and LH were conducted. FSH and LH were measured using kits supplied by the National Institute of Arthritis Digestive Diabetes and Kidney Disease; hormone values were expressed in terms of NIH-rFSH-RP-2 and NIH-rLH-RP-3 standards. The experiments were repeated twice. The inter- and intra-assay coefficients of variation for FSH assays were 7.5% and 5.2%, respectively; and were 6.5% and 4.8% for LH assays.

Assay [2] has the same test system. In words: FSH release in vitro from incubated hemi-anterior pituitaries (RIA of medium). As to conditions: for FSH: n = 6. Format: cell-based, rat. As to the method:
as §1

The test system of assay [3] is ovariectomized, estrogen- and progesterone-blocked female rats. Briefly: LH release in vivo after intravenous injection. The arrangement: species or system rat. The conditions noted are these: for Change in LH from baseline, 10 minutes post-injection: saline control -0.070 ± 0.122. The procedure: (§2) Female rats were ovariectomized under anesthesia with isoflurane 4 weeks prior to the in vivo experiments. Three days before blood sampling, each ovariectomized rat was injected subcutaneously with 50 μg estradiol benzoate (Sigma Chemical Co., St. Louis, Mo.) dissolved in 0.1 ml sesame oil, and 25 mg progesterone (Eli Lilly, Indianapolis, Ind.) dissolved in 0.5 ml sesame oil. One day prior to testing, each animal was implanted with a jugular-atrial catheter. On the morning of testing, polyethylene tubing (PE-50) was connected to the distal end of the jugular-atrial catheter on the rat's dorsum to facilitate blood sampling and intravenous injection. Animals were acclimatized one hour before initial blood samples were taken. Heparinized blood samples ([…]) were collected just before, and at 10, 30, and 60 minutes after injection of 0.5 ml isotonic saline or l-LHRH-III (10 or 100 pmole) in 0.5 ml isotonic saline. After removal of each blood sample, an equal volume of isotonic saline was administered to maintain blood volume.

Assay [4] shares this test system. Briefly: FSH release in vivo after intravenous injection. The arrangement: species or system rat. The conditions noted are these: for Change in FSH from baseline, 10 minutes post-injection: saline control -3.85 ± 0.82; for selectivity for FSH release in vivo, result in words: screen of known LHRH's and LHRH analogs, unpublished data. The procedure:
as §2

The test system of assay [5] is Petromyzon marinus (lamprey) ovaries. The conditions noted are these: Sower et al., 1993; cited from earlier work.
The mark [6] stands for this setting: Table 5 experiment, 10^-6 M, KRB control 149.3 ± 17.0.
Setting [7] is: Table 5 experiment, 10^-7 M, KRB control 149.3 ± 17.0.
[8] abbreviates: Table 4 experiment, 10^-6 M, KRB control 157.5 ± 13.2.
Setting [9] is: Table 4 experiment, 10^-7 M, KRB control 157.5 ± 13.2.
Setting [10] is: Table 5 experiment, 10^-8 M, KRB control 149.3 ± 17.0.
Where [11] appears, read: Table 4 experiment, 10^-8 M, KRB control 157.5 ± 13.2.

Regarding `CC(C)C[C@H](NC(=O)[C@H](Cc1c[nH]c2ccccc12)NC(=O)CNC(=O)[C@H](Cc1ccc(O)cc1)NC(=O)[C@H](CO)NC(=O)[C@H](Cc1c[nH]c2ccccc12)NC(=O)[C@H](Cc1c[nH]cn1)NC(=O)[C@@H]1CCC(=O)N1)C(=O)N1CCC[C@H]1C(=O)NCC(N)=O` [s-LHRH, pGlu-His-Trp-Ser-Tyr-Gly-Trp-Leu-Pro-Gly-NH2] ([pGlu]HWSYGWLPG-NH2), the “LH release in vitro, result in words” value in assay [1] was “stimulated the release of both FSH and LH”. Also, the entries for the “LH” value in assay [1] (setting [6]) and in assay [1] (setting [7]) were 186.2 ± 13.6 ng/mL and 230.8 ± 38.8 ng/mL, respectively. For the same compound, the “FSH” value in assay [2] (setting [8]) was 203.2 ± 39.2 ng/mL; in assay [2] (setting [9]) it was 233.0 ± 37.4 ng/mL. Moreover, the “FSH release in vitro, result in words” value in assay [2] (listed as Salmon (s)-LHRH) is “stimulated the release of both FSH and LH”; in assay [2] (listed as Salmon LHRH), “low potency, and lacked specificity for FSH release”.
`NCCCC[C@H](NC(=O)[C@H](Cc1c[nH]c2ccccc12)NC(=O)[C@H](CC(=O)O)NC(=O)[C@H](Cc1c[nH]cn1)NC(=O)[C@H](CO)NC(=O)[C@H](Cc1c[nH]c2ccccc12)NC(=O)[C@H](Cc1c[nH]cn1)NC(=O)[C@@H]1CCC(=O)N1)C(=O)N1CCC[C@H]1C(=O)NCC(N)=O` [l-LHRH-III, pGlu-His-Trp-Ser-His-Asp-Trp-Lys-Pro-Gly-NH2]: the “Change in LH from baseline, 10 minutes post-injection” value in assay [3] (10 pmole intravenous, n = 6) was -0.022 ± 0.078 ng/mL; in assay [3] (100 pmole intravenous, n = 7), 0.097 ± 0.077 ng/mL. The “plasma LH after injection versus saline control, result in words” value in assay [3] (10 pmole or 100 pmole intravenous, 10, 30, 60 minutes) is “no significant increase in LH”. The “release of FSH versus LH in vivo, result in words” value in assay [4] (10 pmole and 100 pmole) is given as “caused the release of FSH in vivo, but not LH”. Besides, the “plasma FSH after injection versus saline control, result in words” value in assay [4] (10 pmole intravenous) is “highly significant increase in plasma FSH 10 minutes after injection, an effect that vanished by 30 minutes post-injection; also recorded: increase in FSH in vivo (P<0.01) within ten minutes”; in assay [4] (100 pmole intravenous), “slightly greater effect at 10 minutes that was maintained 30 minutes after injection”. Also, the “Change in FSH from baseline, 10 minutes post-injection” value in assay [4] (10 pmole intravenous, n = 6) was -0.75 ± 0.37 ng/mL; in assay [4] (100 pmole intravenous, n = 7) it was -0.43 ± 0.61 ng/mL. The “LH” value in assay [1] (Table 3, 10^-4 M, 3 hr incubation, KRB control 139.3 ± 16.9) amounted to 236.6 ± 19.3 ng/mL; in assay [1] (Table 3, 10^-5 M, 3 hr incubation, KRB control 139.3 ± 16.9), 202.9 ± 31.2 ng/mL; in assay [1] (Table 3, 10^-6 M, 3 hr incubation, KRB control 139.3 ± 16.9), 233.6 ± 33.8 ng/mL; in assay [1] (Table 3, 10^-7 M, 3 hr incubation, KRB control 139.3 ± 16.9), 179.9 ± 28.4 ng/mL; in assay [1] (Table 3, 10^-8 M, 3 hr incubation, KRB control 139.3 ± 16.9) it was 165.7 ± 26.6 ng/mL; in assay [1] (Table 3, 10^-9 M, 3 hr incubation, KRB control 139.3 ± 16.9) it was 171.8 ± 27.3 ng/mL. Besides, the “LH” value was 176.0 ± 9.3 ng/mL in assay [1] (setting [6]); 182.7 ± 13.7 ng/mL in assay [1] (setting [7]); 163.2 ± 6.5 ng/mL in assay [1] (setting [10]); 158.7 ± 10.2 ng/mL in assay [1] (Table 5 experiment, 10^-9 M, KRB control 149.3 ± 17.0). Also, in assay [2], the “FSH release in vitro, result in words” value is “approximately equipotent toward releasing FSH; also recorded: caused FSH release in a dose-related fashion”. Further, the “FSH” value in assay [2] (Table 2, 10^-4 M, 3 hr incubation, KRB control 97.7 ± 20.4) was 368.6 ± 40.9 ng/mL; in assay [2] (Table 2, 10^-5 M, 3 hr incubation, KRB control 97.7 ± 20.4), 283.0 ± 60.8 ng/mL; in assay [2] (Table 2, 10^-6 M, 3 hr incubation, KRB control 97.7 ± 20.4) it was 278.2 ± 40.9 ng/mL; in assay [2] (Table 2, 10^-7 M, 3 hr incubation, KRB control 97.7 ± 20.4) it was 213.0 ± 17.9 ng/mL; in assay [2] (Table 2, 10^-8 M, 3 hr incubation, KRB control 97.7 ± 20.4), 255.7 ± 42.4 ng/mL; in assay [2] (Table 2, 10^-9 M, 3 hr incubation, KRB control 97.7 ± 20.4), 228.3 ± 52.5 ng/mL. In addition, the “FSH” value worked out at 215.0 ± 38.0 ng/mL in assay [2] (setting [8]); 203.2 ± 16.4 ng/mL in assay [2] (setting [9]); 249.3 ± 31.3 ng/mL in assay [2] (setting [11]); 196.3 ± 21.2 ng/mL in assay [2] (Table 4 experiment, 10^-9 M, KRB control 157.5 ± 13.2). Further, the “MEC for statistically significant FSH release relative to c-LHRH-II” value in assay [2] (Table 4 experiment) is “two orders of magnitude lower”. Also, the “minimal effective concentration (MEC) for FSH release” value in assay [2] (lowest concentration tested 10^-9 M) is reported as ≤ 10^-9 M. In assay [2] (release levelled off through 10^-4 M), the “concentration of maximal effect on FSH release” value is “about 10^-6 M”. Besides, the “estradiol and progesterone release from ovaries” value in assay [5] is “stimulated estradiol and progesterone release”.
For `CC(C)C[C@H](NC(=O)CNC(=O)[C@H](Cc1ccc(O)cc1)NC(=O)[C@H](CO)NC(=O)[C@H](Cc1c[nH]c2ccccc12)NC(=O)[C@H](Cc1c[nH]cn1)NC(=O)[C@@H]1CCC(=O)N1)C(=O)N[C@@H](CCCNC(=N)N)C(=O)N1CCC[C@H]1C(=O)NCC(N)=O` [m-LHRH, pGlu-His-Trp-Ser-Tyr-Gly-Leu-Arg-Pro-Gly-NH2], the “LH release in vitro, result in words” value in assay [1] was “dose-related stimulatory effect on LH release, and was active at the lowest concentration tested (4×10^-9 M)”. For the same compound, the “LH” value in assay [1] (Table 3, 2 × 10^-8 M, 3 hr incubation, KRB control 139.3 ± 16.9) is 262.0 ± 36.1 ng/mL; in assay [1] (Table 3, 4 × 10^-9 M, 3 hr incubation, KRB control 139.3 ± 16.9), 183.1 ± 27.0 ng/mL; in assay [1] (Table 5 experiment, 2 × 10^-8 M, KRB control 149.3 ± 17.0), 214.7 ± 30.3 ng/mL. The “FSH release in vitro, result in words” value in assay [2] was “approximately equipotent toward releasing FSH; also recorded: equivalent levels of FSH release at the two concentrations tested”. Further, the “FSH” value in assay [2] (Table 2, 2 × 10^-8 M, 3 hr incubation, KRB control 97.7 ± 20.4) worked out at 257.5 ± 42.4 ng/mL; in assay [2] (Table 2, 4 × 10^-9 M, 3 hr incubation, KRB control 97.7 ± 20.4), 218.5 ± 35.7 ng/mL; in assay [2] (Table 4 experiment, 2 × 10^-8 M, KRB control 157.5 ± 13.2), 320.5 ± 42.6 ng/mL.
As to `NC(=O)CNC(=O)[C@@H]1CCCN1C(=O)[C@H](Cc1ccc(O)cc1)NC(=O)[C@H](Cc1c[nH]c2ccccc12)NC(=O)CNC(=O)[C@H](Cc1c[nH]cn1)NC(=O)[C@H](CO)NC(=O)[C@H](Cc1c[nH]c2ccccc12)NC(=O)[C@H](Cc1c[nH]cn1)NC(=O)[C@@H]1CCC(=O)N1` [c-LHRH-II, pGlu-His-Trp-Ser-His-G1y-Trp-Tyr-Pro-Gly-NH2] ([pGlu]HWSHGWYPG-NH2), the “selectivity for FSH release in vivo, result in words” value in assay [4] is “slight selectivity for FSH release”; in assay [4] (listed as chicken (c) LHRH-II), “slightly preferential FSH-releasing activity in vivo”. Moreover, the “LH release in vitro, result in words” value is on record as “equivalent LH-releasing activity to that of m-LHRH” in assay [1] and “stimulated LH release at doses from 10^-8 to 10^-6 M” in assay [1] (listed as Chicken (c) LHRH-II). Further, the “LH” value in assay [1] (setting [6]) turned out to be 239.0 ± 31.7 ng/mL; in assay [1] (setting [7]), 216.3 ± 17.7 ng/mL; in assay [1] (setting [10]), 199.3 ± 13.6 ng/mL. The “FSH release in vitro, result in words” value in assay [2] was “only significantly increased FSH release at the highest concentration tested (10^-6 M)”; in assay [2] (listed as chicken LHRH-II), “low potency, and lacked specificity for FSH release”. Further, the “FSH” value in assay [2] (setting [8]) was determined as 263.7 ± 17.8 ng/mL; in assay [2] (setting [9]), 209.3 ± 44.0 ng/mL; in assay [2] (setting [11]), 123.7 ± 18.0 ng/mL.

(Values after patent US6300471A, “FSH-releasing peptides” (Board of Supervisors of Louisiana State University and …, priority 1998, dated 2001).)
